Source: US8293773B2, “1, 2, 3-triazole derivatives as new cannabinoid-1 receptor antagonists” (National Tsing Hua University, priority 2008, dated 2012)

Target: T1, human CB1 receptor (Homo sapiens, UniProt P21554)
T1 construct: expressed in transfected cells; membrane-enriched fractions
Test: competitive radioligand binding assay, displacement of [3H]CP55,940, CB1
Conditions: for IC50: displacement of specific [3H]-CP55940 binding in HEK 293 cells stably transfected with human CB1 receptor
Protocol: In addition, the affinity of test compounds of this invention toward CB1 and CB2 receptors was determined by competitive radioligand binding assays in vitro. This method differentiates the binding strength between compounds by their abilities in displacing a receptor-specific radioactive ligand. […] The readings of the radioactivity retained allow further analysis of receptor binding, and assist in predictions of the pharmacological activities of the test compounds.
In the assays, CB1 receptors are from human CB1 stably expressed cell lines, and CB2 receptors are from human CB2 stably expressed cell lines. For purification of membrane-enriched fractions, cells were scraped off from the culture dishes in ice-cold buffer A (50 mM Tris, 5 mM MgCl2, 2.5 mM EDTA, pH 7.4, 10% sucrose) with 1 mM PMSF. After sonication, the membrane-enriched fractions were centrifuged for 15 minutes at 2,000×g at 4° C. The supernatant was centrifuged again for 30 minutes at 43,000×g at 4° C. The final pellet was re-suspended in buffer A and stored at −80° C. The protein concentration of the purified membrane was determined by the Bradford method as described by the manual provided by Bio-Rad Laboratories, Inc., Hercules, Calif.
During the receptor binding experiments, 0.2˜8 μg of membrane fractions were incubated with 0.75 nM [^3H]CP55,940 and a test compound in the incubation buffer of 50 mM Tris-HCl, 5 mM MgCl2, 1 mM EDTA, 0.3% BSA, pH 7.4. The non-specific binding was determined by using 1 μM of CP55,940. The mixture was incubated for 1.5 hours at 30° C. in Multiscreen microplates (Millipore, Billerica, Mass.). At the completion of the incubation, the reaction was terminated by Manifold filtration and washed with ice-cold wash buffer (50 mM Tris, pH 7.4, 0.25% BSA) four times. The radioactivity bound to the filters was measured by Topcount (Perkin Elmer Inc.).

[1] = Table 2, percent inhibition at 10 μM
[2] = Table 1, percent inhibition at 10 μM

T1 sequence (P21554 whole entry): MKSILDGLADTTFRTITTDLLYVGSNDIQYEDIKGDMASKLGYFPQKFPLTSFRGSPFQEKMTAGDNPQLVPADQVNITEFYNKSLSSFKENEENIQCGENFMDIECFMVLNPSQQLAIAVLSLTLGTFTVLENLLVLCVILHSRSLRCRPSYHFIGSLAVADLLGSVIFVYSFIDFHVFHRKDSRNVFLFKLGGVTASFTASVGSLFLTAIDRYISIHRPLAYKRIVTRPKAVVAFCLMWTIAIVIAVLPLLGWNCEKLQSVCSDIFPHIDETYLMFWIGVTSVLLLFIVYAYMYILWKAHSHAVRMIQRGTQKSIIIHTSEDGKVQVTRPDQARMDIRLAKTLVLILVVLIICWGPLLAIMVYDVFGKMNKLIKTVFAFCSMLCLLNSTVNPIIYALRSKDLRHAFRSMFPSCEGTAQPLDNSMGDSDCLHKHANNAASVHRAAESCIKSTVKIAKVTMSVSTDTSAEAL

Row | Structure (SMILES) | inhibition at 10 µM [1] [%] | inhibition at 10 µM [2] [%] | also measured
1 | CCCCOC(=O)CNC(=O)n1nc(-c2ccc(Cl)cc2)c(-c2ccc(Cl)cc2)n1 [Compound 109] | 58.1 | – | –
2 | CCCCOC(=O)Cn1nnc(-c2cccc(C)c2)c1-c1cccc(C)c1 [Compound 63] | – | 9.9 | –
3 | CCCCCNC(=O)n1nc(-c2ccc(Cl)cc2)c(-c2ccc(Cl)cc2Cl)n1 [Compound 90] | 14.4 | – | –
4 | CCCCOC(=O)CNC(=O)n1nc(-c2ccc(Cl)cc2)c(-c2ccc(Cl)cc2Cl)n1 [Compound 104] | 11.8 | – | –
5 | O=C(NC12CC3CC(CC(C3)C1)C2)n1nc(-c2ccc(Cl)cc2)c(-c2ccc(Cl)cc2Cl)n1 [Compound 108] | 34.5 | – | –
6 | O=C(c1ccccc1Cl)n1nc(-c2ccccc2)c(-c2ccccc2)n1 [Compound 67] | 13.1 | – | –
7 | CCCCOC(=O)Cn1nnc(-c2ccc(Br)cc2)c1-c1ccc(Br)cc1 [Compound 53] | – | 68.7 | –
8 | CCCCCCNC(=O)n1nc(-c2ccc(Cl)cc2Cl)c(-c2ccc(Cl)cc2Cl)n1 [Compound 75] | 3.3 | – | –
9 | O=C(Cn1nnc(-c2cc(Cl)cc(Cl)c2)c1-c1cc(Cl)cc(Cl)c1)N1CCCCC1 [Compound 17] | – | 25.9 | –
10 | CCCCOC(=O)Cn1nnc(-c2ccc(OC)cc2)c1-c1ccc(OC)cc1 [Compound 34] | – | 45.9 | –
11 | CC(C)(C)C(=O)n1nc(-c2ccc(Cl)cc2Cl)c(-c2ccc(Cl)cc2Cl)n1 [Compound 68] | 24.2 | – | –
12 | O=C(Cn1nnc(-c2ccc(Cl)cc2Cl)c1-c1ccc(Cl)cc1)N1CCCCC1 [Compound 47] | – | 61.8 | –
13 | CCCCOC(=O)Cn1nnc(-c2ccc(Cl)cc2)c1-c1ccc(Cl)cc1 [Compound 14] | – | 64.1 | –
14 | CCCCCCCC(=O)n1nc(-c2ccc(Cl)cc2)c(-c2ccc(Cl)cc2)n1 [Compound 84] | 21.2 | – | –
15 | CCCCCOC(=O)Cn1nnc(-c2ccc(Cl)cc2Cl)c1-c1ccc(Cl)cc1Cl [Compound 58] | – | 58.3 | –
16 | O=C(CCn1nnc(-c2ccccc2)c1-c1ccccc1)N1CCCCC1 [Compound 43] | – | 34.4 | –
17 | CCCCC(=O)n1nc(-c2ccc(Cl)cc2)c(-c2ccc(Cl)cc2)n1 [Compound 83] | 11.8 | – | –
18 | CCCCCCOC(=O)Cn1nnc(-c2ccc(Cl)cc2Cl)c1-c1ccc(Cl)cc1Cl [Compound 57] | – | 55.7 | –
19 | CCCCOC(=O)Cn1nnc(-c2ccccc2)c1-c1ccc(C(F)(F)F)cc1 [Compound 40] | – | 16.3 | –
20 | O=C(Cn1nc(-c2ccc(Cl)cc2)c(-c2ccc(Cl)cc2Cl)n1)NC1CCCCC1 [Compound 138] | – | – | IC50: 1700 ± 425 nM
21 | O=C(NC1CCCCC1)n1nc(-c2ccc(Cl)cc2)c(-c2ccc(Cl)cc2)n1 [Compound 80] | 29.9 | – | –
22 | CCCCOC(=O)Cn1nnc(-c2ccccc2)c1-c1ccc(C(=O)OC)cc1 [Compound 29] | – | 31.9 | –
23 | O=C(Cn1nc(-c2ccc(Cl)cc2Cl)c(-c2ccc(Cl)cc2Cl)n1)N[C@H](CO)Cc1ccccc1 [Compound 132] | 88.2 | – | IC50: 295 ± 112 nM

Row | Structure (SMILES) | inhibition at 10 µM [1] [%] | inhibition at 10 µM [2] [%] | also measured
24 | O=C(Cn1nnc(-c2ccc(Cl)c(Cl)c2)c1-c1ccc(Cl)c(Cl)c1)N1CCCCC1 [Compound 10] | – | 20.3 | –
25 | CCCCOC(=O)Cn1nnc(-c2ccc(Cl)cc2Cl)c1-c1ccc(Cl)cc1Cl [Compound 54] | – | 71.7 | –
26 | O=C(Cn1nnc(-c2ccccc2)c1-c1ccccc1F)N1CCCCC1 [Compound 52] | – | 11 | –
27 | O=C(NC12CC3CC(CC(C3)C1)C2)n1nc(-c2ccccc2)c(-c2ccccc2)n1 [Compound 106] | 4.8 | – | –
28 | O=C(c1ccccc1)n1nc(-c2ccccc2)c(-c2ccccc2)n1 [Compound 65] | 11.4 | – | –
29 | O=C(Cn1nc(-c2ccc(Cl)cc2Cl)c(-c2ccc(Cl)cc2Cl)n1)NCc1ccccc1F [Compound 173] | – | – | IC50: 19.3 ± 3.5 nM
30 | CCCCCCCNC(=O)n1nc(-c2ccc(Cl)cc2Cl)c(-c2ccc(Cl)cc2Cl)n1 [Compound 89] | 12.9 | – | –
31 | CCCCCCOC(=O)Cn1nc(-c2ccc(Cl)cc2)c(-c2ccc(Cl)cc2Cl)n1 [Compound 114] | 39.1 | – | –
32 | CCCOC(=O)Cn1nnc(-c2ccc(Cl)cc2)c1-c1ccc(Cl)cc1 [Compound 32] | – | 28.3 | –
33 | CCCCOC(=O)Cn1nnc(-c2ccc(C(F)(F)F)cc2)c1-c1ccc(C(F)(F)F)cc1 [Compound 35] | – | 46 | –
34 | CCCCCCCOC(=O)Cn1nnc(-c2ccc(Cl)cc2Cl)c1-c1ccc(Cl)cc1Cl [Compound 59] | – | 30.1 | –
35 | CC(C)N(C(=O)Cn1nnc(-c2ccccc2)c1-c1ccccc1)C(C)C [Compound 5] | – | 18 | –
36 | O=C(Cn1nnc(-c2ccc(Cl)cc2)c1-c1ccc(Cl)cc1)N1CCCCC1 [Compound 16] | – | 33 | –
37 | CCN(CC)C(=O)Cn1nnc(-c2ccccc2)c1-c1ccccc1 [Compound 2] | – | 22.6 | –
38 | CCCCOC(=O)CCn1nnc(-c2ccccc2)c1-c1ccccc1 [Compound 24] | – | 31.6 | –
39 | O=C(NCc1ccccc1)n1nc(-c2ccc(Cl)cc2Cl)c(-c2ccc(Cl)cc2Cl)n1 [Compound 73] | 23.8 | – | –
40 | CCCCOC(=O)Cn1nnc(-c2ccccc2F)c1-c1ccccc1 [Compound 48] | – | 36.1 | –
41 | O=C(NC1CCCCC1)n1nc(-c2ccc(Cl)cc2)c(-c2ccc(Cl)cc2Cl)n1 [Compound 93] | 30.5 | – | –
42 | COc1ccc(NC(=O)n2nc(-c3ccc(Cl)cc3)c(-c3ccc(Cl)cc3)n2)cc1 [Compound 69] | 9.9 | – | –
43 | CCOC(=O)Cn1nc(-c2ccccc2)c(-c2ccccc2)n1 [Compound 110] | 59.1 | – | –
44 | CCCCCCCCNC(=O)n1nc(-c2ccc(Cl)cc2Cl)c(-c2ccc(Cl)cc2Cl)n1 [Compound 98] | – | – | CB1 Inhibition (%) (10 μM) (Table 2, percent inhibition at 10 μM, 10 µM): 19.40%
45 | CCCCOC(=O)CNC(=O)n1nc(-c2ccc(Cl)cc2Cl)c(-c2ccc(Cl)cc2Cl)n1 [Compound 92] | 22.3 | – | –

Continued, in another order:

Row | inhibition at 10 µM [1] [%] | inhibition at 10 µM [2] [%] | Structure (SMILES) | also measured
46 | 14.3 | – | O=C(Cn1nc(-c2ccc(Cl)cc2Cl)c(-c2ccc(Cl)cc2Cl)n1)Oc1ccccc1 [Compound 124] | –
47 | 95.2 | – | O=C(Cn1nc(-c2ccc(Cl)cc2)c(-c2ccc(Cl)cc2Cl)n1)NCc1ccc(F)cc1F [Compound 157] | IC50: 217 ± 86.6 nM
48 | 90.5 | – | O=C(Cn1nc(-c2ccc(Cl)cc2)c(-c2ccc(Cl)cc2Cl)n1)NCc1ccc(Cl)cc1Cl [Compound 152] | IC50: 711 ± 175 nM
49 | 102 | – | C#CC1(NC(=O)Cn2nc(-c3ccc(Cl)cc3Cl)c(-c3ccc(Cl)cc3Cl)n2)CCCCC1 [Compound 126] | IC50: 86.8 ± 1 nM
50 | 92.1 | – | CC1CCC(NC(=O)Cn2nc(-c3ccc(Cl)cc3)c(-c3ccc(Cl)cc3Cl)n2)CC1 (centres unmarked) [Compound 167] | –
51 | 95.9 | – | COC[C@H](NC(=O)Cn1nc(-c2ccc(Cl)cc2Cl)c(-c2ccc(Cl)cc2Cl)n1)[C@@H](O)c1ccccc1 [Compound 134] | IC50: 806 ± 346 nM
52 | 94.5 | – | Cc1ccccc1CNC(=O)Cn1nc(-c2ccc(Cl)cc2)c(-c2ccc(Cl)cc2Cl)n1 [Compound 148] | IC50: 592 ± 302 nM
53 | 69.5 | – | COc1cccc(CNC(=O)Cn2nc(-c3ccc(Cl)cc3)c(-c3ccc(Cl)cc3Cl)n2)c1 [Compound 156] | –
54 | 87 | – | O=C(Cn1nc(-c2ccc(Cl)cc2)c(-c2ccc(Cl)cc2Cl)n1)NCc1ccc(Cl)c(Cl)c1 [Compound 153] | IC50: 1060 ± 656 nM
55 | 11.6 | – | O=C(Cn1nc(-c2ccccc2)c(-c2ccccc2)n1)NC1CCCCC1 [Compound 123] | –
56 | 59.3 | – | O=C(Cn1nc(-c2ccc(Cl)cc2Cl)c(-c2ccc(Cl)cc2Cl)n1)N[C@@H](CO)[C@H](O)c1ccccc1 [Compound 137] | –
57 | 95 | – | Cc1ccc(CNC(=O)Cn2nc(-c3ccc(Cl)cc3Cl)c(-c3ccc(Cl)cc3Cl)n2)cc1 [Compound 145] | IC50: 252 ± 75.1 nM
58 | 84.2 | – | O=C(Cn1nc(-c2ccc(Cl)cc2Cl)c(-c2ccc(Cl)cc2Cl)n1)N1CCOCC1 [Compound 131] | IC50: 71.9 ± 16.5 nM
59 | 67.4 | – | CCCCOC(=O)Cn1nc(-c2ccc(Cl)cc2)c(-c2ccc(Cl)cc2Cl)n1 [Compound 118] | –
60 | 80 | – | C[C@H](NC(=O)Cn1nc(-c2ccc(Cl)cc2)c(-c2ccc(Cl)cc2Cl)n1)C(O)(c1ccccc1)c1ccccc1 [Compound 143] | IC50: 789 ± 202 nM
61 | 91.4 | – | O=C(Cn1nc(-c2ccc(Cl)cc2)c(-c2ccc(Cl)cc2Cl)n1)NCc1ccc(Cl)cc1 [Compound 150] | IC50: 704 ± 283 nM
62 | 89.5 | – | CC(C)[C@H](NC(=O)Cn1nc(-c2ccc(Cl)cc2)c(-c2ccc(Cl)cc2Cl)n1)C(O)(c1ccccc1)c1ccccc1 [Compound 144] | IC50: 140 ± 63.1 nM
63 | 76.6 | – | O=C(Cn1nc(-c2ccc(Cl)cc2)c(-c2ccc(Cl)cc2Cl)n1)NC1CCc2ccccc21 (centres unmarked) [Compound 163] | IC50: 2070 ± 186 nM
64 | 47.5 | – | CCCCCCCOC(=O)Cn1nc(-c2ccc(Cl)cc2Cl)c(-c2ccc(Cl)cc2Cl)n1 [Compound 117] | –
